The subject of one series is H. pylori (ATCC 43504). As for the experimental part:
Briefly, after the growth of H. pylori in liquid culture the optical density (OD) of the bacterial suspensions were read at 600 nm and adjusted to one. Stock solutions of the peptides at 1 mM were prepared in sterile water. Bacteria were diluted in medium to reach bacterial density around 10^5 bacteria/mL. One-hundred microliters per well of bacterial suspension were then added into sterile polypropylene 96-well microplates (Greiner BioOne, Paris, France) and exposed to increasing concentrations of peptides (from zero to 100 µM, 1:2 serial dilution). […] Plates were incubated at 37 °C for 24 h for H. pylori (ATCC 43504) and for 4–7 days for the clinical strains. H. pylori was tested in microaerophilic conditions generated using micro-anaerobic BD GasPak system. At the end of the incubation, OD600nm was measured using microplate reader (Synergy Mx, Biotek, Colmar, France). The MIC was defined as the lowest concentration of drug that inhibited visible growth of the organism. Experiments were conducted in independent triplicate (n = 3).
It is also rich with mucus to protect it from the aggressive acidity. For this reason, the impact of mucins and pepsin on the activity of the peptides was investigated. The impact of the gastric mucins on peptide activity was evaluated using a combination of commercial porcine stomach mucins MUC2 and MUC3 (Sigma–Aldrich) at a final concentration of 1 mg/mL sterilized using 0.2 µm filter. This concentration was used based on the estimated concentration of mucins present in the mucus in vivo [27]. The effect of mucins on peptides activity was evaluated by MIC and by time killing assay as explained below. The resistance of the peptides to pepsin was tested as previously described with some changes. […] This concentration was used since it corresponds the pepsin concentration in the stomach (0.5–1 mg/mL).

The next series has as its system human gastric explants. In words: Ex vivo toxicity assay, histological examination (H&E) of human gastric explants. It counts as cell-based. The note with it: 2, 4 or 8 h; peptides 100 µM, CTAB 300 µM; H&E staining. As for the experimental part:
To further evaluate the innocuity of the peptides, ex vivo experiments were performed using human explants as previously described. Briefly, human gastric tissue samples were obtained from patients undergoing surgery at the Hospital Laveran (Marseille, France), unit of gastrointestinal surgery according to a collaborative clinical transfer project. The procedures were approved by the French ethic committee (CODECOH n° DC-2019-3402). All patients agreed for the use of their tissues for research purposes. Samples were taken from healthy patients during sleeve gastrectomy from macroscopically unaffected area as identified by the surgeons. After resection, the specimens were placed in ice-cold oxygenated sterile DMEM solution containing 1% streptomycin/penicillin solution and 50 μg/mL gentamycin and were directly transferred to the laboratory within 15 min on ice. Gastric tissues were extensively washed and maintained in ice-cold culture media containing 1% streptomycin/penicillin solution and 50 μg/mL gentamycin. […] Quantification of the release of LDH was also used in addition to microscopic observations to evaluate the impact of peptides on human gastric explants. […] The LDH activity was measured using previously described protocol with minor changes. […] Increase in OD339nm was then measured at 30 °C after 0, 1, 5, and 10 min using microplate reader (Synergy Mx, Biotek). […]

Non-standard residues stand in square brackets, D forms with d. Residues, ends and D or L forms follow the SMILES beside them.

Consider one compound from PMC6843786, “Temporin-SHa and Its Analogs as Potential Candidates for the Treatment of Helicobacter pylori” (Biomolecules, 2019).

Turning to `CC[C@H](C)[C@H](NC(=O)CNC(=O)[C@H](CO)NC(=O)[C@H](CC(C)C)NC(=O)[C@@H](N)Cc1ccccc1)C(=O)N[C@H](C(=O)NCC(=O)N[C@@H](CCSC)C(=O)N[C@@H](CC(C)C)C(=O)N[C@H](C)C(=O)N[C@@H](CCCCN)C(=O)N[C@@H](CC(C)C)C(=O)N[C@@H](Cc1ccccc1)C(N)=O)C(C)C` [NST1, H-Phe^1-Leu^2-Ser^3-Gly^4-Ile^5-Val^6-Gly^7-Met^8-Leu^9-D-Ala^10-Lys^11-Leu^12-Phe^13-NH2] (H-FLSGIVGML[dA]KLF-NH2), the “increase of MIC in the presence of mucins” value with H. pylori (ATCC 43504) (MUC2 and MUC3 at 1 mg/mL versus no mucins) was “two”. Moreover, the “MIC in the Presence of mucins” value with H. pylori (ATCC 43504) (porcine gastric mucins MUC2 and MUC3 at 1 mg/mL) is listed as 3.12 µM. The “tissue organization by microscopic observation” value in the series with human gastric explants is recorded as “tissue organization close to the negative controls”.
